Test results published in US20110112057A1, “Sequential administration of 20,20,21,21,21-pentafluoro-17-hydroxy-11Beta-[4-(hydroxyacetyl)phenyl]-19-nor-17Alpha-pregna-4,9-dien-3-one and one or more progestogens for the treatment of gynaecological disorders” (BAYER SCHERING PHARIMA AKTIENGESELL SCHAFT, priority 2008, published 2011).
Each block holds one compound with its values, some of them ahead of it.

How the values were obtained:
[1] = system: women of reproductive age; assay: randomised study of sequential treatment cycles with progesterone receptor antagonist followed by a progestogen; type: in vivo
Protocol: Women of reproductive age are treated in a randomised study sequentially in two treatment cycles with 20,20,21,21,21-pentafluoro-17-hydroxy-11β-[4-(hydroxyacetyl)phenyl]-19-nor-17α-pregna-4,9-dien-3-one. For this purpose, 20,20,21,21,21-pentafluoro-17-hydroxy-11β-[4-(hydroxyacetyl)phenyl]-19-nor-17α-pregna-4,9-dien-3-one is administered to the women in each case for 84 days with a daily dose of between about 1 mg and about 50 mg, followed by intake of a progestogen over a period of about 10 to 14 days. This complete treatment cycle is repeated once.

[2] = system: endometrium of patients with symptomatic uterine leiomyomata; details: after use for 3 months (Williams 2007); cited from earlier work
[3] = system: healthy, tube-ligated women; assay: randomised study on the effect of lonaprisan in healthy, tube-ligated women; type: in vivo
Protocol: 36 healthy, tube-ligated women from 24 to 43 years of age were subjects in a randomised study on the effect of lonaprisan. For this purpose, the women were divided into three groups: 7 women received placebo, 14 women 1 mg of lonaprisan and 15 women 10 mg of lonaprisan over a period of 3 months, once a day.

[4] = 1 mg or 10 mg lonaprisan once a day over 3 months, not observed in placebo group

Compound: C[C@]12C[C@H](c3ccc(C(=O)CO)cc3)C3=C4CCC(=O)C=C4CC[C@H]3[C@@H]1CC[C@@]2(O)C(F)(F)C(F)(F)F [20,20,21,21,21-pentafluoro-17-hydroxy-11β-[4-(hydroxyacetyl)phenyl]-19-nor-17α-pregna-4,9-dien-3-one]
bleeding pattern during the treatment phase ([1]; 84 days, daily dose about 1 mg to about 50 mg): amenorrhoea or a greatly reduced bleeding
bleeding after sequential treatment with the progestogen ([1]; 84 days, daily dose about 1 mg to about 50 mg, followed by a progestogen for about 10 to 14 days, cycle repeated once): menstrual bleeding following administration of the progestogen
endometrial biopsies: persistent changes in the endometrium ([1]; after completion of each treatment cycle): no persistent changes in the endometrium

Compound: COC[C@]1(OC)CC[C@H]2[C@@H]3CCC4=CC(=O)CCC4=C3[C@@H](c3ccc(/C=N/O)cc3)C[C@@]21C [asoprisnil]
endometrial pattern diagnosed [2]: non-physiological secretory effect
endometrial vessels [2]: thickening of the smooth muscle cell layer surrounding the endometrial vessels

menstrual bleeding after discontinuation ([3]; after discontinuation of lonaprisan): spontaneous return of menstrual bleeding
endometrial biopsies: persistent changes in the endometrium ([3]; after the first menstrual bleeding after completion of the treatment phase): no persistent changes in the endometrium
Compound: CC(=O)c1ccc([C@H]2C[C@@]3(C)[C@@H](CC[C@@]3(O)C(F)(F)C(F)(F)F)[C@@H]3CCC4=CC(=O)CCC4=C32)cc1 [lonaprisan, 11β-(4-acetylphenyl)-20,20,21,21,21-pentafluoro-17-hydroxy-19-nor-17α-pregna-4,9-dien-3-one]
bleeding pattern [3, 4]: amenorrhoea or a greatly reduced bleeding
effect on ovulation [3, 4]: inhibition of ovulation
